The text below walks through data of US4515766A, “Labeled phosphonic acid compositions for investigations of in vivo deposits of calcium” (priority 1982, dated 1985).

The nature of data set [1]: Toxic effects in rats. Format: in vivo. The following applies: 0.32 mg/300 gm. An excerpt:
(§1) Relative to a 70 kg person, this represents a safety factor of 74.7 and 112 respectively.

Data set [2] in a line: Toxic effects in mice. Particulars: 0.032 mg/20 gm. Format: in vivo.
Description: as §1

Turning to `O=P(O)(O)C(O)(c1ccccc1)P(=O)(O)O` [.PHI.PA], the toxic effects observed entry in data set [1] and in data set [2] was “No toxic effects” in each case. The safety factor in data set [1] (rat, in vivo, read-out: safety factor relative to a 70 kg person) is 74.7; in data set [2] (mouse, in vivo, read-out: safety factor relative to a 70 kg person), 112.
